Test results published in patent publication US20100256105A1, “NOVEL COMPOUNDS” (AstraZeneca R&D, priority 2009, published 2010).

Target: T1, recombinant human GR (Homo sapiens, UniProt P04150)
T1 construct: purchased Panvera/Invitrogen P2812 (kit P2893)
T1 sequence (P04150 1-777): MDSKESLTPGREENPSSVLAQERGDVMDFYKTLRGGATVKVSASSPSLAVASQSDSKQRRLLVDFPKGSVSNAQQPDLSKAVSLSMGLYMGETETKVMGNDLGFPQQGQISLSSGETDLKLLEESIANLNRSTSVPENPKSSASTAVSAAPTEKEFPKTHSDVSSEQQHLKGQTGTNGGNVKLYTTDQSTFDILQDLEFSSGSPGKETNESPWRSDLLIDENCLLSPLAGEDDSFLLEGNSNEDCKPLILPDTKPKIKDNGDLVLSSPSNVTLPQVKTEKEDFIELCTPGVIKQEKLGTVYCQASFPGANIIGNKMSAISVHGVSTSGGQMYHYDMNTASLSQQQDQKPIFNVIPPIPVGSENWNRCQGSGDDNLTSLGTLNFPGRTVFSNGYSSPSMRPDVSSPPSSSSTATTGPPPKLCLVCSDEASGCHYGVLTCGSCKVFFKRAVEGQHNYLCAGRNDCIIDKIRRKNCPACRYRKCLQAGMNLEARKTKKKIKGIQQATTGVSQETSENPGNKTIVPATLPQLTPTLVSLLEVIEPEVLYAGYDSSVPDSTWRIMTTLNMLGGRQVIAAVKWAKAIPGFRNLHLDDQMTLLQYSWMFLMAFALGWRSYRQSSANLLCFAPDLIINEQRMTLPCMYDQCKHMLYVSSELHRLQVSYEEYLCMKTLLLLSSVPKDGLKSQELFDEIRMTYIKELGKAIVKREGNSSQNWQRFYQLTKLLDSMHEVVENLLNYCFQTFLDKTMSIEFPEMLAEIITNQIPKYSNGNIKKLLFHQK
Assay: Human Glucocorticoid Receptor (GR) Assay, fluorescence polarization
Conditions: GS Red tracer, 2 hours at room temperature, 100% control 10 μM Dexamethasone, read-out: Inhibition of GR binding, IC50
Procedure: Human Glucocorticoid Receptor (GR) Assay The assay is based on a commercial kit from Panvera/Invitrogen (Part number P2893). The assay technology is fluorescence polarization. The kit utilises recombinant human GR (Panvera, Part number P2812), a Fluoromone™ labelled tracer (GS Red, Panvera, Part number P2894) and a Stabilizing Peptide 10× (Panvera, Part number P2815). The GR and Stabilizing Peptide reagents are stored at −70° C. while the GS Red is stored at −20° C. Also included in the kit are 1M DTT (Panvera, Part number P2325, stored at −20° C.) and GR Screening buffer 10× (Panvera, Part number P2814, stored at −70° C. initially but once thawed stored at room temperature). Avoid repeated freeze/thaws for all reagents. The GR Screening buffer 10× comprises 100 mM potassium phosphate, 200 mM sodium molybdate, 1 mM EDTA and 20% DMSO. Test compounds (1 μL) and controls (1 μL) in 100% DMSO were added to black polystyrene 384-well plates (Greiner low volume black flat-bottom, part number 784076). 0% control was 100% DMSO and 100% control was 10 μM Dexamethasone. Background solution (8 μL; assay buffer 10×, Stabilizing Peptide, DTT and ice cold MQ water) was added to the background wells. GS Red solution (7 μL; assay buffer 10×, Stabilizing Peptide, DTT, GS Red and ice cold water) was added to all wells except background wells. GR solution (7 μL; assay buffer 10×, Stabilizing Peptide, DTT, GR and ice cold water) was added to all wells. The plate was sealed and incubated in a dark at room temperature for 2 hours. The plate was read in an Analyst plate reader (LJL Biosystems/Molecular Devices Corporation) or other similar plate reader capable of recording fluorescence polarization (excitation wavelength 530 nm, emission wavelength 590 nm and a dichroic mirror at 561 nm).

Row | Compound | IC50 [nM]
1 | COCC(=O)O[C@]1(C(=O)SCC#N)CC[C@H]2[C@@H]3C=C(C)C4=Cc5c(cnn5-c5ccc(F)nc5)C[C@]4(C)[C@H]3[C@@H](O)C[C@@]21C [Example 1, (1R,3aS,3bS,10aR,10bS,11S,12aS)-1-{[(Cyanomethyl)sulfanyl]carbonyl}-7-(6-fluoropyridin-3-yl)-11-hydroxy-5,10a,12a-trimethyl-1,2,3,3a,3b,7,10,10a,10b,-11,12,12a-dodecahydrocyclopenta[5,6]naphtho[1,2-f]indazol-1-yl methoxyacetate] | 2.3
2 | CCC(=O)O[C@]1(C(=O)SCC#N)CC[C@H]2[C@@H]3C=C(C)C4=Cc5c(cnn5-c5ccc(F)nc5)C[C@]4(C)[C@H]3[C@@H](O)C[C@@]21C [Example 2, (1R,3aS,3bS,10aR,10bS,11S,12aS)-1-{[(Cyanomethyl)sulfanyl]carbonyl}-7-(6-fluoropyridin-3-yl)-11-hydroxy-5,10a,12a-trimethyl-1,2,3,3a,3b,7,10,10a,10b,-11,12,12a-dodecahydrocyclopenta[5,6]naphtho[1,2-f]indazol-1-yl propanoate] | 2.1
3 | C[C@]12Cc3cnn(-c4ccc(F)nc4)c3C=C1C=C[C@@H]1[C@@H]2[C@@H](O)C[C@@]2(C)[C@H]1CC[C@]2(OC(=O)c1cocn1)C(=O)SCC#N [Example 6, (1R,3aS,3bS,10aR,10bS,11S,12aS)-1-{[cyanomethyl)sulfanyl]carbonyl}-7-(6-fluoropyridin-3-yl)-11-hydroxy-10a,12a-dimethyl-1,2,3,3a,3b,7,10,10a,10b,11,12,12a-dodecahydrocyclopenta[5,6]naphtho [1,2-f]indazol-1-yl 1,3-oxazole-4-carboxylate] | 1.8
4 | COCC(=O)O[C@]1(C(=O)SCC#N)CC[C@H]2[C@@H]3C=CC4=Cc5c(cnn5-c5ccc(F)nc5)C[C@]4(C)[C@H]3[C@@H](O)C[C@@]21C [Example 7, (1R,3aS,3bS,10aR,10bS,11S,12aS)-1-{[(cyanomethyl)sulfanyl]carbonyl}-7-(6-fluoropyridin-3-yl)-11-hydroxy-10a,12a-dimethyl-1,2,3,3a,3b,7,10,10a,10b,11,12,12a-dodecahydrocyclopenta[5,6]naphtho [1,2-f]indazol-1-yl methoxyacetate] | 0.87
5 | C[C@]12Cc3cnn(-c4ccc(F)nc4)c3C=C1C=C[C@@H]1[C@@H]2[C@@H](O)C[C@@]2(C)[C@H]1CC[C@]2(OC(=O)C1CC1)C(=O)SCC#N [Example 9, (1R,3aS,3bS,10aR,10bS,11S,12aS)-1-{[(cyanomethyl)sulfanyl]carbonyl}-7-(6-fluoropyridin-3-yl)-11-hydroxy-10a,12a-dimethyl-1,2,3,3a,3b,7,- 10,10a,10b,11,12,12a-dodecahydro-cyclopenta[5,6]naphtho[1,2-f]indazol-1-yl cyclopropanecarboxylate] | 1
6 | CCC(=O)O[C@]1(C(=O)SCC#N)CC[C@H]2[C@@H]3C=CC4=Cc5c(cnn5-c5ccc(F)nc5)C[C@]4(C)[C@H]3[C@@H](O)C[C@@]21C [Example 10, (1R,3aS,3bS,10aR,10bS,11S,12aS)-1-{[(cyanomethyl)sulfanyl]carbonyl}-7-(6-fluoropyridin-3-yl)-11-hydroxy-10a,12a-dimethyl-1,2,3,3a,3b,7,10,10a,10b,11,12,12a-dodecahydrocyclopenta[5,6]naphtho [1,2-f]indazol-1-yl propanoate] | 0.83
7 | CCC(=O)O[C@]1(C(=O)SCF)CC[C@H]2[C@@H]3C=C(C)C4=Cc5c(cnn5-c5ccc(F)nc5)C[C@]4(C)[C@H]3[C@@H](O)C[C@@]21C [Example 11, (1R,3aS,3bS,10aR,10bS,11S,12aS)-1-{[(fluoromethyl)sulfanyl]carbonyl}-7-(6-fluoropyridin-3-yl)-11-hydroxy-5,10a,12a-trimethyl-1,2,3,3a,3b,7,10,10a,10b,11,12,12a-dodecahydrocyclopenta[5,6]naphtho [1,2-f]indazol-1-yl propanoate] | 3.6
8 | CC1=C[C@@H]2[C@H]([C@@H](O)C[C@@]3(C)[C@H]2CC[C@]3(OC(=O)C2CC2)C(=O)SCC#N)[C@@]2(C)Cc3cnn(-c4ccc(F)nc4)c3C=C12 [Example 13, (1R,3aS,3bS,10aR,10bS,11S,12aS)-1-{[cyanomethyl)sulfanyl]carbonyl}-7-(6-fluoropyridin-3-yl)-11-hydroxy-5,10a,12a-trimethyl-1,2,3,3a,3b,7,10,10a,10b,11,12,12a-dodecahydrocyclopenta[5,6]naphtho [1,2-f]indazol-1-yl cyclopropanecarboxylate] | 1.5

Continued, values first:

Row | IC50 [nM] | Compound
9 | 1.4 | CCC(=O)O[C@]1(C(=O)SCF)CC[C@H]2[C@@H]3C=CC4=Cc5c(cnn5-c5ccc(F)nc5)C[C@]4(C)[C@H]3[C@@H](O)C[C@@]21C [Example 3, (1R,3aS,3bS,10aR,10bS,11S,12aS)-1-{[(Fluoromethyl)sulfanyl]carbonyl}-7-(6-fluoropyridin-3-yl)-11-hydroxy-10a,12a-dimethyl-1,2,3,3a,3b,7,10,10a,10b,11,12,12a-dodecahydrocyclopenta[5,6]naphtho[1,2-f]indazol-1-ylpropanoate]
10 | 0.8 | COCC(=O)O[C@]1(C(=O)SCF)CC[C@H]2[C@@H]3C=CC4=Cc5c(cnn5-c5ccc(F)nc5)C[C@]4(C)[C@H]3[C@@H](O)C[C@@]21C [Example 4, (1R,3aS,3bS,10aR,10bS,11S,12aS)-1-{[(Fluoromethyl)sulfanyl]carbonyl}-7-(6-fluoropyridin-3-yl)-11-hydroxy-10a,12a-dimethyl-1,2,3,3a,3b,7,10,10a,10b,11,12,12a-dodecahydrocyclopenta[5,6]naphtho[1,2-f]indazol-1-yl methoxyacetate]
11 | 1.5 | C[C@]12Cc3cnn(-c4ccc(F)nc4)c3C=C1C=C[C@@H]1[C@@H]2[C@@H](O)C[C@@]2(C)[C@H]1CC[C@]2(OC(=O)c1cocn1)C(=O)SCF [Example 5, (1R,3aS,3bS,10aR,10bS,11S,12aS)-1-{[(fluoromethyl)sulfanyl]carbonyl}-7-(6-fluoropyridin-3-yl)-11-hydroxy-10a,12a-dimethyl-1,2,3,3a,3b,7,10,10a,10b,11,12,12a-dodecahydrocyclopenta[5,6]naphtho [1,2-f]indazol-1-yl 1,3-oxazole-4-carboxylate]
12 | 1.4 | C[C@]12Cc3cnn(-c4ccc(F)nc4)c3C=C1C=C[C@@H]1[C@@H]2[C@@H](O)C[C@@]2(C)[C@H]1CC[C@]2(OC(=O)C1CC1)C(=O)SCF [Example 8, (1R,3aS,3bS,10aR,10bS,11S,12aS)-1-{[(fluoromethyl)sulfanyl]carbonyl}-7-(6-fluoropyridin-3-yl)-11-hydroxy-10a,12a-dimethyl-1,2,3,3a,3b,7,10,10a,10b,11,12,12a-dodecahydrocyclopenta[5,6]naphtho [1,2-f]indazol-1-yl cyclopropanecarboxylate]
13 | 1.6 | CC1=C[C@@H]2[C@H]([C@@H](O)C[C@@]3(C)[C@H]2CC[C@]3(OC(=O)C2CC2)C(=O)SCF)[C@@]2(C)Cc3cnn(-c4ccc(F)nc4)c3C=C12 [Example 12, (1R,3aS,3bS,10aR,10bS,11S,12aS)-1-{[(fluoromethyl)sulfanyl]carbonyl}-7-(6-fluoropyridin-3-yl)-11-hydroxy-5,10a,12a-trimethyl-1,2,3,3a,3b,7,- 10,10a,10b,11,12,12a-dodecahydro-cyclopenta[5,6]naphtho[1,2-f]indazol-1-yl cyclopropanecarboxylate]
